Data: a melting point compilation (Tetko et al.; mined from patent text by program, amines drawn as free bases though some values may be those of a salt)

melting point [°C] | Structure (SMILES)
185 to 187 | Cc1cc(OCc2ccccc2)c2cc(C(N)=O)[nH]c2c1
197 | O=C(Nc1ncnc2c1ncn2CC(O)CF)c1ccccc1 (racemic)
148 to 151 | N=C(N)Nc1nc(CSCCNC2=NS(=O)N=C2O)cs1 (stereo not drawn)
122 to 123 | Cn1nc(O)c(C(F)F)c1Cl
183 to 185 | C=C(C)Cc1c(C)c(NC(C)=O)cc(C)c1O
194 to 195 | CCCCCCCCCCc1c(C)c(C)c(-c2n[nH]c3cc(C(C)(C)C)nn23)c(C)c1C
232 | O=C(O)C1CCN(Cc2ccc(Cl)c(Cl)c2)CC1
112 to 114 | O=C(CO)c1ccc(C(F)(F)F)cc1
270 | COc1ccc(C(=O)Nc2ccc3ccc(Cl)nc3n2)cn1
163 to 165 | N#CNC(=NC1CCN(Cc2ccccc2)CC1)N1CCOCC1
248 to 252 | O=P(c1ccccc1)(c1ccccc1)c1ccc(P(=O)(c2ccccc2)c2ccccc2)nn1
117 | NCC(O)C1=CC2(CCCCC2)c2ccccc21 (stereo not drawn)
296 to 298 | O=C(c1cccc(F)c1)N1CCC2(CCn3c(nc(-c4ccncn4)cc3=O)N2)C1 (stereo not drawn)
238 to 239 | CN(C(=O)c1ccc2nonc2c1)C1CCS(=O)(=O)CC1
98 to 100 | CCOC(=O)C1=C(C)NC(=S)N(C(=O)OCC)C1c1cccc(C(F)(F)F)c1 (stereo not drawn)
116 to 118 | Cc1ccccc1Nc1c(C(=O)C(C)C)cnc2c(CO)cccc12
201 to 203 | NC1CCCC(C(=O)N2CCC(c3[nH]nc4c3C(=O)c3c(NC(=O)NN5CCOCC5)cccc3-4)CC2)C1 (stereo not drawn)
168 to 170 | O=C(c1ccccc1)c1cc(-c2ccncc2)sc1-c1ccncc1
173 to 174 | N=C(Nc1ccccc1)Nc1ncccc1OCc1ccc(Cl)cc1
185 to 187 | COc1cc(C(=O)O)c2oc(-c3ccccc3)cc2c1
204 to 206 | CCCCOc1c(-c2cc(C=CC(=O)O)ccc2OC)cc(C(C)(C)C)cc1C(C)(C)C
99 to 101 | OC/C=C/c1ccc(O)c(OCc2ccccc2)c1
67 | COc1cc(Br)cc2c1OCCC2
142 to 145 | CS(=O)(=O)c1ccccc1NC(=O)c1ccccc1O

melting point [°C] | Structure (SMILES)
143 to 145 | Cc1ccc(N2CCN(CCCc3ccc(C4CCC(=O)N4)cc3)CC2)cc1 (stereo not drawn)
211 | CCOC(=O)N1CCC2(CC1)C(=O)OC(=O)N2c1ccccc1
82 to 86 | COc1ccc(OP(Oc2ccc(OC)cc2C(C)(C)C)Oc2ccc(OC)cc2C(C)(C)C)c(C(C)(C)C)c1
72 to 74 | C[C@@H](CCOC(N)=O)CN1CCC(c2noc3cc(F)ccc23)CC1
155 to 158 | CS(=O)(=O)Oc1ccc(-c2c3ccccc3c(Cl)c3sc4ccccc4c23)cc1
72 to 76 | C[Si](C)(C)OCCOC(=O)c1ccccc1S(N)(=O)=O
233 to 235 | Oc1ccc(-c2c3ccc(O)cc3cc3sc4ccccc4c23)cc1
38 to 39 | CCCCCCCCCCCCNc1ccc(OCC)cc1
158 to 159 | COc1cccc(-c2csc(N3CCN(C(=O)Nc4onc(C)c4C)CC3)n2)c1
104 to 105 | N#Cc1ccc(OCC(O)CN2CC3CC(C2)CN(C(=O)OCCCl)C3)cc1 (stereo not drawn)
167 to 168 | NCCCCCC(=O)NC(CCCCN)C(=O)N(NC(=O)OCc1ccccc1)C(=O)OCc1ccccc1 (stereo not drawn)
> 260 | CNC(=O)Cn1c(-c2ccc([N+](=O)[O-])cc2)nc2cccnc21
210 | O=C(Nc1ccc2ccc(-c3ccc(F)cc3)nc2n1)c1cccc(Br)c1
174 to 175 | O=c1nc(N2CCCc3ccccc32)sc2ncccc12
183 to 185 | CCNC(=O)N(C)Cc1cccc2c1CN(C1CCC(=O)NC1=O)C2=O (stereo not drawn)
61 to 65 | COc1ccc(-c2nc(C(C)C)sc2-c2ccc(OC)cc2)cc1
132 | CC(=O)C(=[N+]=[N-])C(=O)OCc1ccc([N+](=O)[O-])cc1
133 to 135 | CC(C)(C)c1cc2ncnn2nc1OCCN1CCC(OC(c2ccccc2)c2ccccc2)CC1
178 to 182 | COc1ccc(-c2sc(N)c(C(=O)c3ccc(Cl)cc3)c2CN(C2CCCCC2)C2CCCCC2)cc1
95 to 96 | CCOC(=O)C(NC(=O)CNC=O)C(=O)OCC
78 | CCc1ccc(NC(=S)SC)cc1
135 | Cc1ccc(S(=O)(=O)CNc2ccc(C(F)(F)F)cc2)cc1
85 to 87 | CCCCCCOc1ccc(-c2nc(-c3ccc(OCCCCCC)cc3O)nc(-c3ccc(OCCCCCC)cc3OCCCCCC)n2)c(O)c1
169 to 172 | COC(=O)[C@H]1CC[C@@H](n2nc(-c3c(-c4ccccc4)nn4ccccc34)ccc2=O)[C@H](O)C1 (relative stereo)

melting point [°C] | Structure (SMILES)
146 to 148 | Cn1c(=S)ccn(C2OC(CO)C(O)C2O)c1=O (stereo not drawn)
121 to 123 | Cc1ccc(OCC2CO2)c([N+](=O)[O-])c1[N+](=O)[O-] (stereo not drawn)
54 to 55 | FC(F)(F)c1cc(CNCc2cc3ccccc3nc2N2CCN(CC3CCCCC3)CC2)cc(C(F)(F)F)c1
93 | COc1c(Cl)cc(NC(=O)OCCCl)c(OC)c1[N+](=O)[O-]
151 to 153 | COc1ccc(Nc2nc(Cl)c3sccc3n2)c(C)c1
276 to 280 | CC(C)(C)c1cc(-c2n[nH]c(=O)[nH]2)cc(C(C)(C)C)c1O
215 to 231 | CNC1C(O)CC2C3CCc4cc(O)cc(C)c4C3CCC21C (stereo not drawn)
186 | CCOC(=O)Cc1c(C(=O)OCC)[nH]c(C)c1-c1nc(-c2ccc(OC)cc2)c(-c2ccc(OC)cc2)[nH]1
114 to 115 | CCOC(=O)c1cn(-c2ncc(Cl)cc2Cl)cn1
283 | CNS(=O)(=O)c1cc(C(=O)O)cc(N)c1Oc1ccccc1
227 to 228 | CC(C)c1ccnc(C(=O)c2[nH]c3ccc(Cl)cc3c2CC(=O)O)c1
65 to 66 | O=C1CCCN1c1cccc(C(F)(F)F)c1
156 to 158 | O=C(c1ccc([N+](=O)[O-])c(OCC2CO2)c1)N1CCOCC1 (stereo not drawn)
280 to 284 | CCCCn1c2c(c3cc(OC)c(OC)cc3c1=O)C(=O)c1cc3c(cc1-2)OCO3
174 to 176 | CC(C)c1nc2cc(N)ccn2n1
47 to 48 | CC(Oc1ccc(-c2cccc(S(=O)(=O)NCC(F)(F)F)c2)cc1)C(O)CCc1cccnc1 (stereo not drawn)
196 to 199 | COc1cc(C(N)=S)c2c(c1OC)C(=O)CC2
43 to 44 | CCCCCCCCCCCCCCCCCCc1ccc(S(=O)(=O)Cl)cc1
173 to 175 | O=C(CCl)NC(C(=O)O)c1ccc2c(c1)CCS2 (stereo not drawn)
78 | O=C1CC[C@](CO)(COCc2ccccc2)O1
149 to 150 | c1ccc2c(CN3CCN(c4ccc5c(c4)OCO5)CC3)n[nH]c2c1
222 to 225 | Nc1ncnc2c1ncn2OC(CO)COCP(=O)(O)O (stereo not drawn)
69 to 71 | CCCCCCCOc1cc2c(cc1C(C)=O)C(C)(C)CCS2
210 | CCC=Cc1nc2ccccc2n1Cc1ccc(C(=O)O)cc1

Structure (SMILES) | melting point [°C]
COc1ccccc1-c1c(C#N)nn(-c2c(Cl)cc(C(F)(F)F)cc2Cl)c1N | 193
